Measurements published in patent US11807650B2, “NMDA receptor modulators and uses thereof” (Novartis AG, priority 2016, dated 2023).

Target: T1, human GRIN1 (transcript variant NR1-3) and GRIN2D expressed in Xenopus oocytes (Homo sapiens, UniProt O15399)
T1 construct: GenScript (GRIN2D synthesis) SC115601; host or cells: Xenopus oocytes injected with cRNA (1 GluN1 : 2 GluN2)
Assay: NR2D oocyte potentiation assay (two-electrode voltage clamp)
Format: cell-based
Conditions: 10 uM test compound; glutamate and glycine 10 μM each; holding potential −40 mV
Description: NR2D Oocyte Potentiation Assay. Xenopus oocytes (Xenopus 1, Dexter, Mich.) were initially separated from the lobes of an ovary using surgical forceps; they were then defolliculated by constant agitation at room temperature in OR-2 buffer (82.5 mM NaCl; 2.5 mM KCl; 1 mM MgCl2; 5 mM HEPES; pH 7.4) containing 2 mg/ml collagenase Type 1 (Fisher Scientific, USA) for 1.5-2 hours. The cells were then gently aspirated with a Pasteur pipette to remove the follicular tissue; this was followed by washing three times with OR-2 to remove all traces of collagenase. The oocytes were then washed in ND-96 (96 mM NaCl, 2 mM KCl, 1.8 mM CaCl2, 1 mM MgCl2, 5 mM HEPES, 50 ng/L gentamycin, 100 units/ml penicillin and 100 μg/ml streptomycin; pH 7.6) three times and this was followed by incubation in ND-96 at room temperature with mild agitation for 15 minutes; subsequently they were stored for at least 2 hours at 16° C. before sorting and selection for injection. Oocytes selected for injection were incubated overnight in ND-96 at 16° C.
The human GRIN1 (transcript variant NR1-3 (Origene, SKU #: SC115601, Rockville, Md.) and GRIN2D (NCBI locus NM_000836, sequence optimized and synthesized by GenScript) were linearized and transcribed using the mMessage mMachine kit (Life Technologies) and promoters SP6 (for GluN1) and T7 (for GluN2D). cRNAs were mixed together at a ratio of 1 GluN1:2 GluN2. Each oocyte was injected with 50 nL of cRNA and stored in ND96 (96 mM NaCl, 2 mM KCl, 1.8 mM CaCl2, 1 mM MgCl2, 5 mM HEPES, 50 ng/L gentamycin, 100 units/ml penicillin and 100 μg/ml streptomycin; pH 7.6) at 16° C. for 72 h prior to recording.
Currents were recorded using a two-electrode voltage-clamp amplifier (Oocyte Clamp OC-725C; Warner Instrument Corp, Hamden, Conn.), and digitized using Digidata 1550A and pClamp (v. 10) software (Molecular Devices, Sunnyvale, Calif.). Electrodes were filled with 3 M KCl and had resistances that ranged from 0.2-1 MO. All measurements were made at a holding potential of −40 mV. Cells were continuously perfused with oocyte recording solution containing 90 mM NaCl, 1 mM KCl, 0.5 mM BaCl2, and 10 mM HEPES (Ph 7.4). Glutamate and Glycine (co-agonists) were applied at respective concentrations of 10 μM each. Co-agonists were applied until a plateau was reached, and test compounds were then added in the continued presence of co-agonists until a new plateau was reached. After the addition of the last test compound concentration, the oocyte was washed with oocyte recording buffer. Fraction of current remaining was calculated as [(current in presence of test compound−background current)/(co-agonist current−background current)] and IC50 values were computed using Prism 6.0 (Graphpad).

T1 sequence (O15399 28-1336, other chains not shown): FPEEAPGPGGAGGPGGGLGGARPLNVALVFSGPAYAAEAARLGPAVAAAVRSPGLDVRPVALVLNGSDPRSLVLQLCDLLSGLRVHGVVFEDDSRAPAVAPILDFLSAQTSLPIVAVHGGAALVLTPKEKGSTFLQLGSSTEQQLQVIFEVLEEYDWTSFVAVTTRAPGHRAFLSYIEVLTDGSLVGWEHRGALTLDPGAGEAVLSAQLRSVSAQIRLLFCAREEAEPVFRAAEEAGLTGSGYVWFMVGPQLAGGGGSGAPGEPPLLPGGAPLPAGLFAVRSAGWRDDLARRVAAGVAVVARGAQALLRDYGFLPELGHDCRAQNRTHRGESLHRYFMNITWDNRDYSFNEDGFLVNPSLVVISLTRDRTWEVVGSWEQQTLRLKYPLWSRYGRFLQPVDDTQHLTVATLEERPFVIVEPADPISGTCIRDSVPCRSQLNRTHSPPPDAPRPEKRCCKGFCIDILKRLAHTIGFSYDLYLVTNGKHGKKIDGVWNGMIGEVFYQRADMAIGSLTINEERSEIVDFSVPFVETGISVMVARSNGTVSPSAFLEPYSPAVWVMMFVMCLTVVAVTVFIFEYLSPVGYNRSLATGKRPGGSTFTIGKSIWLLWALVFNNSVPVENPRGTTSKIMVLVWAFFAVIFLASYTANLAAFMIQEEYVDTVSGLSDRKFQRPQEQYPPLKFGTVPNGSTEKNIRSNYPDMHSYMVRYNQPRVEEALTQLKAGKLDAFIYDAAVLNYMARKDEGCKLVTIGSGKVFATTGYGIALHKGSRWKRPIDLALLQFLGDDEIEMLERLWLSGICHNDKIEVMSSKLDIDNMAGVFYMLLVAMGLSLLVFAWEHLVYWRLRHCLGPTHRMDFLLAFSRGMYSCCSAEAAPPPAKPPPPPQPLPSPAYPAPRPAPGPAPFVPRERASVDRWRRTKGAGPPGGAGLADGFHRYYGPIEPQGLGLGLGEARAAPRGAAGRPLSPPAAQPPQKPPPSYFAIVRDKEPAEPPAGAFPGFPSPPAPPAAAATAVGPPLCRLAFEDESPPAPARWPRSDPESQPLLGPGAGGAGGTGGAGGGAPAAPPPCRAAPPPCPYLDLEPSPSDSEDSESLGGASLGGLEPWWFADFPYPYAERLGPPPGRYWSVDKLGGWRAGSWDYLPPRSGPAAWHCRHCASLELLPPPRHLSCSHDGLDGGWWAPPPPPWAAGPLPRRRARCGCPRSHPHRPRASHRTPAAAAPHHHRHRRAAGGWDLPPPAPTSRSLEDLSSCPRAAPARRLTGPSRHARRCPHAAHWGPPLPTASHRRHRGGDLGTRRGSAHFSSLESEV

| activation at 10 µM | NR2D Oocyte % Potentiation @ 10 uM | Structure (SMILES) |
| --- | --- | --- |
| 10 to 100% |  | CC(C)(C)c1ccc(-c2nc3n(c(=O)c2C#N)CC(F)CS3)cn1 (stereo not drawn) [Example 16, 8-(6-(tert-butyl)pyridin-3-yl)-3-fluoro-6-oxo-3,4-dihydro-2H,6H-pyrimido[2,1-b][1,3]thiazine-7-carbonitrile] |
| 100 to 500% |  | C[C@H]1CSc2nc(-c3ccc(C4(C)CC4)nc3)c(C#N)c(=O)n2C1 [Example 115, (R)-3-methyl-8-(6-(1-methylcyclopropyl)pyridin-3-yl)-6-oxo-3,4-dihydro-2H,6H-pyrimido[2,1-b][1,3]thiazine-7-carbonitrile] |
| < 10% |  | CC(C)(C)c1ccc(-c2nc3n(c(=O)c2Br)CCCC3)cc1 [Example 13, 3-bromo-2-(4-(tert-butyl)phenyl)-6,7,8,9-tetrahydro-4H-pyrido[1,2-a]pyrimidin-4-one] |
| 100 to 500% |  | CC(C)(C)c1ccc(-c2nc3ccccn3c(=O)c2C#N)cc1 [Example 18, 2-(4-(tert-butyl)phenyl)-4-oxo-4H-pyrido[1,2-a]pyrimidine-3-carbonitrile] |
| > 1000% |  | COCC1CSc2nc(-c3cnc(C(C)(C)C)c(F)c3)c(C#N)c(=O)n2C1 (stereo not drawn) [Example 125, 8-(6-(tert-butyl)-5-fluoropyridin-3-yl)-3-(methoxymethyl)-6-oxo-3,4-dihydro-2H,6H-pyrimido[2,1-b][1,3]thiazine-7-carbonitrile] |
| 10 to 100% |  | COC(C)(C)c1ccc(-c2nc3n(c(=O)c2C#N)CC(C)CS3)cn1 (stereo not drawn) [Example 119, 8-(6-(2-methoxypropan-2-yl)pyridin-3-yl)-3-methyl-6-oxo-3,4-dihydro-2H,6H-pyrimido[2,1-b][1,3]thiazine-7-carbonitrile] |
| 500 to 1000% |  | CC1(c2ccc(-c3nc4n(c(=O)c3C#N)CCCS4)cn2)CC1(F)F (stereo not drawn) [Example 110, 8-(6-(2,2-difluoro-1-methylcyclopropyl)pyridin-3-yl)-6-oxo-3,4-dihydro-2H,6H-pyrimido[2,1-b][1,3]thiazine-7-carbonitrile] |
|  | Inhibitor | CC1(F)CN(c2ccc(-c3nc4n(c(=O)c3C#N)CCCS4)cn2)C1 [Example 53, 8-(6-(3-fluoro-3-methylazetidin-1-yl)pyridin-3-yl)-6-oxo-3,4-dihydro-2H,6H-pyrimido[2,1-b][1,3]thiazine-7-carbonitrile] |
| > 1000% |  | CSc1cc(-c2nc3n(c(=O)c2C#N)CC(C)CS3)cnc1C(C)(C)C (stereo not drawn) [Example 61, 8-(6-(tert-butyl)-5-(methylthio)pyridin-3-yl)-3-methyl-6-oxo-3,4-dihydro-2H,6H-pyrimido[2,1-b][1,3]thiazine-7-carbonitrile] |
| > 1000% |  | CC1CSc2nc(-c3cnc(C(C)(C)C)c(F)c3)c(C#N)c(=N)n2C1 (stereo not drawn) [Example 41, 8-(6-(tert-butyl)-5-fluoropyridin-3-yl)-6-imino-3-methyl-3,4-dihydro-2H,6H-pyrimido[2,1-b][1,3]thiazine-7-carbonitrile] |
| 100 to 500% |  | CC1CSc2nc(-c3ccc(C(C)(CF)CF)nc3)c(C#N)c(=O)n2C1 (stereo not drawn) [Example 155, 8-(6-(1,3-difluoro-2-methylpropan-2-yl)pyridin-3-yl)-3-methyl-6-oxo-3,4-dihydro-2H,6H-pyrimido[2,1-b][1,3]thiazine-7-carbonitrile] |
| 10 to 100% |  | CC(C)(C)c1ccc(-c2nc3n(c(=O)c2Br)CCCC3)cn1 [Example 15, 3-bromo-2-(6-tert-butylpyridin-3-yl)-4H,6H, 7H,8H,9H-pyrido[1,2-a] pyrimidin-4-one] |
|  | Inhibitor | CC1CSc2nc(-c3ccc(N4CC(F)(F)C4)nc3)c(C#N)c(=O)n2C1 (stereo not drawn) [Example 56, 8-(6-(3,3-difluoroazetidin-1-yl)pyridin-3-yl)-3-methyl-6-oxo-3,4-dihydro-2H,6H-pyrimido[2,1-b][1,3]thiazine-7-carbonitrile] |
| 500 to 1000% |  | CC1CCn2c(nc(-c3ccc(C(C)(C)C)nc3)c(C#N)c2=O)S1 (stereo not drawn) [Example 93, 8-(6-(tert-butyl)pyridin-3-yl)-2-methyl-6-oxo-3,4-dihydro-2H,6H-pyrimido[2,1-b][1,3]thiazine-7-carbonitrile] |
| 10 to 100% |  | CCN1CSc2nc(-c3cnc(C(C)(C)C)nc3)c(C#N)c(=O)n2C1 [Example 11, 8-(2-(tert-butyl)pyrimidin-5-yl)-3-ethyl-6-oxo-3,4-dihydro-2H,6H-pyrimido[2,1-b][1,3,5]thiadiazine-7-carbonitrile] |
| > 1000% |  | CC(C)(C)c1ncc(-c2nc3n(c(=O)c2C#N)C[C@H](CO)CS3)cn1 [Example 138, (R)-8-(2-(tert-butyl)pyrimidin-5-yl)-3-(hydroxymethyl)-6-oxo-3,4-dihydro-2H,6H-pyrimido[2,1-b][1,3]thiazine-7-carbonitrile] |
| 500 to 1000% |  | N#Cc1c(-c2ccc(C3(C(F)(F)F)CC3)cc2)nc2n(c1=O)CCCS2 [Example 47, 6-oxo-8-(4-(1-(trifluoromethyl)cyclopropyl)phenyl)-3,4-dihydro-2H,6H-pyrimido[2,1-b][1,3]thiazine-7-carbonitrile] |
| > 1000% |  | CNC(=O)C1CSc2nc(-c3cnc(C(C)(C)C)c(F)c3)c(C#N)c(=O)n2C1 (stereo not drawn) [Example 163, 8-(6-(tert-butyl)-5-fluoropyridin-3-yl)-7-cyano-N-methyl-6-oxo-3,4-dihydro-2H,6H-pyrimido[2,1-b][1,3]thiazine-3-carboxamide] |
| 500 to 1000% |  | CC(=O)NC[C@H]1CSc2nc(-c3cnc(C(C)(C)C)c(F)c3)c(C#N)c(=O)n2C1 [Example 168, (R)-N-((8-(6-(tert-butyl)-5-fluoropyridin-3-yl)-7-cyano-6-oxo-3,4-dihydro-2H,6H-pyrimido[2,1-b][1,3]thiazin-3-yl)methyl)acetamide] |
| > 1000% |  | CCC1CSc2nc(-c3ccc(C(C)(C)C)nc3)c(C#N)c(=O)n2C1 (stereo not drawn) [Example 81, 8-(6-tert-butylpyridin-3-yl)-3-ethyl-6-oxo-2H,3H,4H, 6H-pyrimido [2,1-b][1,3] thiazine-7-carbonitrile] |
| 10 to 100% |  | Cc1c(-c2ccc(C(C)(C)C)cc2)nc2n(c1=O)CCCS2 [Example 29, 8-(4-(tert-butyl)phenyl)-7-methyl-3,4-dihydro-2H,6H-pyrimido[2,1-b][1,3]thiazin-6-one] |
|  | Inhibitor | N#Cc1c(-c2ccc(N3CC(F)(F)C3)nc2)nc2n(c1=O)CCCS2 [Example 55, 8-(6-(3,3-difluoroazetidin-1-yl)pyridin-3-yl)-6-oxo-3,4-dihydro-2H,6H-pyrimido[2,1-b][1,3]thiazine-7-carbonitrile] |
| > 1000% |  | CC(C)(C)c1ccc(-c2nc3n(c(=O)c2C#N)C[C@@H](CO)CS3)cn1 [Example 129, (S)-8-(6-(tert-butyl)pyridin-3-yl)-3-(hydroxymethyl)-6-oxo-3,4-dihydro-2H,6H-pyrimido[2,1-b][1,3]thiazine-7-carbonitrile] |
| > 1000% |  | CC(C)(C)c1ncc(-c2nc3n(c(=O)c2C#N)C[C@H](CO)CS3)cc1F [Example 158, (R)-8-(6-(tert-butyl)-5-fluoropyridin-3-yl)-3-(hydroxymethyl)-6-oxo-3,4-dihydro-2H,6H-pyrimido[2,1-b][1,3]thiazine-7-carbonitrile] |
| > 1000% |  | CC1CSc2cc(-c3cnc(C4(C)CC4)c(F)c3)c(C#N)c(=O)n2C1 (stereo not drawn) [Example 135, 8-(5-fluoro-6-(1-methylcyclopropyl)pyridin-3-yl)-3-methyl-6-oxo-3,4-dihydro-2H,6H-pyrido[2,1-b][1,3]thiazine-7-carbonitrile] |
| 500 to 1000% |  | C[C@@H]1CSc2nc(-c3cnc(C(C)(C)C)nc3)c(C#N)c(=O)n2C1 [Example 74, (S)-8-(2-(tert-butyl)pyrimidin-5-yl)-3-methyl-6-oxo-3,4-dihydro-2H,6H-pyrimido[2,1-b][1,3]thiazine-7-carbonitrile] |

| Structure (SMILES) | activation at 10 µM | NR2D Oocyte % Potentiation @ 10 uM |
| --- | --- | --- |
| CC(C)(C)OCC1CSc2nc(-c3cnc(C(C)(C)C)c(F)c3)c(C#N)c(=O)n2C1 (stereo not drawn) [Example 173, 3-(tert-butoxymethyl)-8-(6-(tert-butyl)-5-fluoropyridin-3-yl)-6-oxo-3,4-dihydro-2H,6H-pyrimido[2,1-b][1,3]thiazine-7-carbonitrile] | 10 to 100% |  |
